In US20260026501A1, “AGROCHEMICAL COMPOSITION OF SDHI FUNGICIDES” (ADAMA MAKHTESHIM LTD., priority 2022, published 2026):

Assay: Concentration of the actives by HPLC after storage (storage stability)
Type: physicochemical
Procedure: The assay of the two Ai's was checked by HPLC Method.
The analytical method included: • 1. Preparation of standard solution. • 2. Sample solution preparation: 200 mg sample was measured in triplicates into 50 ml volumetric flask. • 3. Acetonitrile was added. • 4. Injection of the standard and sample solutions in room temperature.
The concentration was calculated by: […]
The samples were checked for assay after 11 days and 14 days at room temperature and at 54° C. The AI % should not decrease more than 5% after the accelerated stability at 54° C.
The samples were checked for assay after 11 days and 14 days at room temperature and at 54° C.
The AI % should not decrease more than 5% after the accelerated stability at 54° C.

[1] = 11 days after EC preparation (54° C.)
[2] = 11 days after EC preparation (r.t)
[3] = 14 days after EC preparation (54° C.)
[4] = 14 days after EC preparation (r.t)

SMILES	Concentration of the active in formulation A [1]	Concentration of the active in formulation A [2]	Concentration of the active in formulation A [3]	Concentration of the active in formulation A [4]	Concentration of the active in formulation B (after 14 days (54° C.))	Concentration of the active in formulation B (after 14 days (r.t))	Concentration of the active in formulation A (after EC preparation)	Concentration of the active in formulation B (after EC preparation)
Cn1cc(C(=O)Nc2ccccc2-c2cc(F)c(F)c(F)c2)c(C(F)F)n1 [Fluxapyroxad, 3-(difluoromethyl)-1-methyl-N-(3′,4′,5′-trifluorobiphenyl-2-yl)pyrazole-4-carboxamide]	7500 µg/mL	7500 µg/mL	7500 µg/mL	7400 µg/mL	9000 µg/mL	8800 µg/mL	7500 µg/mL	8900 µg/mL
OC(Cc1ccccc1Cl)(Cn1nc[nH]c1=S)C1(Cl)CC1 (racemic) [Prothioconazole, 2-[(2RS)-2-(1-chlorocyclopropyl)-3-(2-chlorophenyl)-2-hydroxypropyl]-2H-1,2,4-triazole-3(4H)-thione]	14900 µg/mL	15100 µg/mL	14700 µg/mL	14800 µg/mL	14700 µg/mL	14500 µg/mL	15200 µg/mL	15300 µg/mL
